Legend:
[1] = molecular target: Ba/F3_EGFR_del19/T790M/C797S cell (Homo sapiens, UniProt P00533, T790M/C797S, cells depend on it, form not given); assay: BaF3 cell proliferation assay (CelltiterGlo, 72 hr); assay type: cell-based; conditions: 72 hr incubation; read-out: IC50 (nM, Ba/F3_EGFR_del19/T790M/C797S cell proliferation)
Experimental: (§1) The BaF3 cell proliferation assay was performed at Pharmaron (www.pharmaron.com, Beijing, China). The Ba/F3_WT and Ba/F3_Del19/T790M/C797S cell lines were maintained in 1640 medium containing 10% FBS, 1*PS and 1*Glutamax. Only cells with viability greater than 90% are used for assays. Dispense 30 μl of cell suspension at 700/well into 384 well microplate, add 30 nl compound solution into 384 cell plate by Echo, cells were incubated for 72 hr in 37° C./5% CO2 incubator, add 30 μl reagent CelltiterGlo assay kit (CTG, Promega) per well and shake plates, incubate the plate (avoiding light) at 37° C./5% CO2 for 30 min. and read the luminescence by Envision. The luminescence values were converted to % Inhibition. Calculate IC50 by fitting % inhibition values and log of compound concentrations to nonlinear regression (dose response−variable slope) with Graphpad 5.0.
(§2) Y=Bottom+(Top−Bottom)/(1+10^((Log IC50−X)*HillSlope))
(§3) X: log of inhibitor concentration; Y: % Inhibition.

Ba/F3_WT cell = assay: as above; assay type: cell-based; conditions: Mus musculus, 72 hr incubation
Experimental: as §1, §2, §3

EGFR_L858R/T790M/C797S = molecular target: T1, EGFR_L858R/T790M/C797S (Homo sapiens, UniProt P00533, C797S/L858R/T790M); assay: In vitro biochemical kinase assay (33P-ATP filter-binding, Reaction Biology)
T1 construct: Reaction Biology Corporation (contract assay provider)
Experimental: (§4) The biochemical kinase assay was performed at Reaction Biology Corporation (www.reactionbiology.com, Malvern, Pa.) following procedures described in the reference (Anastassiadis, T, et al, Nature Biotechnology, 2011, 29, 1039). Base Reaction buffer includes 20 mM Hepes (pH 7.5), 10 mM MgCl2, 1 mM EGTA, 0.02% Brij35, 0.02 mg/ml BSA, 0.1 mM Na3VO4, 2 mM DTT and 1% DMSO. Required cofactors are added individually to each kinase reaction. Testing compounds were dissolved in 100% DMSO to specific concentration. The serial dilution was conducted by Integra Viaflo Assist in DMSO. Compounds in 100% DMSO are into the kinase reaction mixture by Acoustic technology (Echo550; nanoliter range), incubate for 20 min at room temperature, followed by ^33P-ATP and incubation for 2 hours at room temperature. Radioactivity was then detected by filter-binding method. Kinase activity data were expressed as the percent remaining kinase activity in test samples compared to vehicle (dimethyl sulfoxide) reactions. IC50 values and curve fits were obtained using Prism (GraphPad Software).

EGFR_WT = molecular target: T2, EGFR_WT (Homo sapiens, UniProt P00533); assay: as above
T2 construct: Reaction Biology Corporation (contract assay provider)
Experimental: as §4

T1 sequence (P00533 25-1210 T790M/C797S/L858R): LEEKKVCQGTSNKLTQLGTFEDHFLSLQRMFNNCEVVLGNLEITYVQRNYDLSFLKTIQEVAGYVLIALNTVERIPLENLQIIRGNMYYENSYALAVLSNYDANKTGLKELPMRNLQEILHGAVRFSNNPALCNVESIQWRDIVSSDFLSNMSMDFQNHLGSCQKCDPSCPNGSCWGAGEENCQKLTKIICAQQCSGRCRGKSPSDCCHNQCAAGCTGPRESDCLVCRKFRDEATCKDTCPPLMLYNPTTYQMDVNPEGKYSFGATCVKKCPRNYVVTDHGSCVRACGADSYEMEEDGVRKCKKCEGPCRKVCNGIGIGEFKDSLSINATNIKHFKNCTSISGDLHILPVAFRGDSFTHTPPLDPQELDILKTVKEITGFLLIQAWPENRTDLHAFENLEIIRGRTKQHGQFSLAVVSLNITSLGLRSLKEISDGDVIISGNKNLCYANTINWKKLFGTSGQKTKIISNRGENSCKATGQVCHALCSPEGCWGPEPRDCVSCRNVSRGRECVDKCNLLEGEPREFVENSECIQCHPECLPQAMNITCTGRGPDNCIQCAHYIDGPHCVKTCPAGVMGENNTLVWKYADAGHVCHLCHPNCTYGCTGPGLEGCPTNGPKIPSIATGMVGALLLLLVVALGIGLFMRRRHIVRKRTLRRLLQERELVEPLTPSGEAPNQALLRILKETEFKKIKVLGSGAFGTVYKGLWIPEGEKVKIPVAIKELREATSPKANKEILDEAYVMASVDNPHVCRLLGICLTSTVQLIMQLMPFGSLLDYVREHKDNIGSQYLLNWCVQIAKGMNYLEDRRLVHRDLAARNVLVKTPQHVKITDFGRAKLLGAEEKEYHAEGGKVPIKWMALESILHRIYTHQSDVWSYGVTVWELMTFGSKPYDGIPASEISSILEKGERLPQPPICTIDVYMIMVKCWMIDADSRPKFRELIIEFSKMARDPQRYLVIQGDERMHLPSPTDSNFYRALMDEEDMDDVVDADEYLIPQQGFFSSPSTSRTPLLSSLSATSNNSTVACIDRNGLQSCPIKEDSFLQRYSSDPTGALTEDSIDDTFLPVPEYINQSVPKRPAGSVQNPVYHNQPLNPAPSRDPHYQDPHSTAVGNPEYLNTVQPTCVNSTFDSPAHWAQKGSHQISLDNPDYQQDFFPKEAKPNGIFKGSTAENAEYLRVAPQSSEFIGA
Sequence of Ba/F3_EGFR_del19/T790M/C797S cell (P00533 with tags, fused parts or gaps DEL746-750/T790M/C797S, form open): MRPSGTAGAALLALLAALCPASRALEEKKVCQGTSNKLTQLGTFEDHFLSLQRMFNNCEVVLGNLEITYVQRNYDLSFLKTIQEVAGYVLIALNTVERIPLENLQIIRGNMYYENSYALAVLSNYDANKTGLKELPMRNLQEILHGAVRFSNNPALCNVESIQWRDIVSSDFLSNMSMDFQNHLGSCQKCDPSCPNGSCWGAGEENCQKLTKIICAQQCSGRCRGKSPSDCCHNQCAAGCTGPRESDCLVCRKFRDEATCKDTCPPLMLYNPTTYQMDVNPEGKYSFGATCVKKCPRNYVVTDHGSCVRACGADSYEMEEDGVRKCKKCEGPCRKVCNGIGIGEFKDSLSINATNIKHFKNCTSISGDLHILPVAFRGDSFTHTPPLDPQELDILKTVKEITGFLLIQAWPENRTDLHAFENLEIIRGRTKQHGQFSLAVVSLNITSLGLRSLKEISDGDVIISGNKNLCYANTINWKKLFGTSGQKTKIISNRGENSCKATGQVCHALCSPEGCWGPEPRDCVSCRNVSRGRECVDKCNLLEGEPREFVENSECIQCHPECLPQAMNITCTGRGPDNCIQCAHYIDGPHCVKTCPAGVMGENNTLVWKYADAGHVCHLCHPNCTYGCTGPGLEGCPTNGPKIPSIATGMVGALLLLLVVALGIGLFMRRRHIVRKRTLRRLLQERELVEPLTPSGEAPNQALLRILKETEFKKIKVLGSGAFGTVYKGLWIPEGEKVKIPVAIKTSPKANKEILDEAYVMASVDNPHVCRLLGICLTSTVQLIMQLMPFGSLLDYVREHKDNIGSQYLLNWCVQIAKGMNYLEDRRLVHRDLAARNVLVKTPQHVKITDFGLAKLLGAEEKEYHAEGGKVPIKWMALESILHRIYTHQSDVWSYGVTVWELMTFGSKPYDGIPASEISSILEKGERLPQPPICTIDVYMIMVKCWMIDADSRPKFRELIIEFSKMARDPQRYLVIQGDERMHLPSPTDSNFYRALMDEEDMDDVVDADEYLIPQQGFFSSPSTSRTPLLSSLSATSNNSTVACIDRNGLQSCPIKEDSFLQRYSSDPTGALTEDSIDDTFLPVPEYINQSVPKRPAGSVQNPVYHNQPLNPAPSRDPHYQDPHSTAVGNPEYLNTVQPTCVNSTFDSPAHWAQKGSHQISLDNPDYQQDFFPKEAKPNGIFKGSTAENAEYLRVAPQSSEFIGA
T2 sequence (P00533 25-1210): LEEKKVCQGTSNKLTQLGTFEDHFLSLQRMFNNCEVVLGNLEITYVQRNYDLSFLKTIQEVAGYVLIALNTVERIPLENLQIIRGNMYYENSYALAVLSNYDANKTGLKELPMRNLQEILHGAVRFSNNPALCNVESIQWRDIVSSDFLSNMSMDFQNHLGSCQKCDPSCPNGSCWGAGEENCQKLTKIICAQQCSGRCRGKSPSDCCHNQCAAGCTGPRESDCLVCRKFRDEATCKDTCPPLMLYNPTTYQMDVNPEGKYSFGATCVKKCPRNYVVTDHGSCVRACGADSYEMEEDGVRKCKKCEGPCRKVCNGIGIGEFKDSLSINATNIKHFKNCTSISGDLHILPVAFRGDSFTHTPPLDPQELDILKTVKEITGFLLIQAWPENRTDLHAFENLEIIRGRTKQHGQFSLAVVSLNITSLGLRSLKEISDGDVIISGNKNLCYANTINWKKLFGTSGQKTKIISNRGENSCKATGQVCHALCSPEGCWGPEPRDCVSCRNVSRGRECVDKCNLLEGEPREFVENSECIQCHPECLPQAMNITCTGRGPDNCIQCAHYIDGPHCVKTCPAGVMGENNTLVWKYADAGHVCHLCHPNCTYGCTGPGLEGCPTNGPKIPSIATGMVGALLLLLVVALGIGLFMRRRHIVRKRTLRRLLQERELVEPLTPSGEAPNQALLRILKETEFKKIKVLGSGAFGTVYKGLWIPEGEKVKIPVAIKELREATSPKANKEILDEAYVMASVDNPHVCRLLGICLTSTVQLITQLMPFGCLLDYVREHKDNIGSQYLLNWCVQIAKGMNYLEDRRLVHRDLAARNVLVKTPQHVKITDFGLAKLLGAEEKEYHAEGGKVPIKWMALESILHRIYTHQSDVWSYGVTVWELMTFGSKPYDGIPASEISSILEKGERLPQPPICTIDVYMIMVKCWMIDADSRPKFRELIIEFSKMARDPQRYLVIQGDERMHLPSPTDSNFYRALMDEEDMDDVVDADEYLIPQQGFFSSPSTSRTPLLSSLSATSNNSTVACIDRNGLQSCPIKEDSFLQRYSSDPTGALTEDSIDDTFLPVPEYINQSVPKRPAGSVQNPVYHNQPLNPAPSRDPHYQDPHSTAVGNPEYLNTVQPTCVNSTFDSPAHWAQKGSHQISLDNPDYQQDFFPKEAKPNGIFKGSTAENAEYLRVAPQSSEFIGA

GI50 [1] [nM] | IC50 (Ba/F3_WT cell) [nM] | IC50 (EGFR_L858R/T790M/C797S) [nM] | IC50 (EGFR_WT) [nM] | Structure (SMILES)
538 | 3430 | 2.7 |  | CCS(=O)(=O)N(C)c1cc2ccc1Nc1nc(ncc1Cl)Nc1cc(c(N3CCN(C)CC3)cc1OC)CCCCCO2 [Compound A8, N-(3^5-chloro-1^6-methoxy-1^4-(4-methylpiperazin-1-yl)-6-oxa-2,4-diaza-3(2,4)-pyrimidina-1(1,3),5(1,4)-dibenzenacycloundecaphane-5^2-yl)-N-methylethanesulfonamide]
34 | 1390 | 0.5 | 5.9 | COc1cc(N2CCC(N3CCN(C)CC3)CC2)c2cc1Nc1ncc(Cl)c(n1)Nc1ccc(cc1N(C)S(C)(=O)=O)OCCCCC2 [Compound A9, N-(3^5-chloro-1^6-methoxy-1^4-(4-(4-methylpiperazin-1-yl)piperidin-1-yl)-6-oxa-2,4-diaza-3(2,4)-pyrimidina-1(1,3),5(1,4)-dibenzenacycloundecaphane-5^2-yl)-N-methylmethanesulfonamide]
125 | 1840 | 0.5 |  | CCN(c1cc2ccc1Nc1nc(ncc1Cl)Nc1cc(c(N3CCN(C)CC3)cc1OC)CCCCCO2)S(C)(=O)=O [Compound A10, N-(3^5-chloro-1^6-methoxy-1^4-(4-methylpiperazin-1-yl)-6-oxa-2,4-diaza-3(2,4)-pyrimidina-1(1,3),5(1,4)-dibenzenacycloundecaphane-5^2-yl)-N-ethylmethanesulfonamide]
108 | 3770 | 2 |  | COc1cc(N2CCN(C)CC2)c2cc1Nc1ncc(C(F)(F)F)c(n1)Nc1ccc(cc1N(C)S(C)(=O)=O)OCCCCC2 [Compound A13, N-(1^6-methoxy-1^4-(4-methylpiperazin-1-yl)-3^5-(trifluoromethyl)-6-oxa-2,4-diaza-3(2,4)-pyrimidina-1(1,3),5(1,4)-dibenzenacycloundecaphane-5^2-yl)-N-methylmethanesulfonamide]
897 | 2960 | 16.7 |  | COc1cc(N2CCN(C)CC2)c2cc1Nc1ncc(Cl)c(n1)Nc1ccc(cc1N(C)S(C)(=O)=O)OCCCCCC2 [Compound A14, N-(3^5-chloro-1^6-methoxy-1^4-(4-methylpiperazin-1-yl)-6-oxa-2,4-diaza-3(2,4)-pyrimidina-1(1,3),5(1,4)-dibenzenacyclododecaphane-5^2-yl)-N-methylmethanesulfonamide]
195 | 2660 | 0.5 |  | COc1cc(N2CCC(N3CCN(C)CC3)CC2)c2cc1Nc1ncc(Cl)c(n1)Nc1ccc(cc1N(C)S(C)(=O)=O)OCCCCCC2 [Compound A15, N-(3^5-chloro-1^6-methoxy-1^4-(4-(4-methylpiperazin-1-yl)piperidin-1-yl)-6-oxa-2,4-diaza-3(2,4)-pyrimidina-1(1,3),5(1,4)-dibenzenacyclododecaphane-5^2-yl)-N-methylmethanesulfonamide]
520 | > 10000 | 145 |  | COc1cc(N2CCN(C)CC2)c2cc1Nc1ncc(Cl)c(n1)Nc1ccc(cc1P(C)(C)=O)OCCCCC2 [Compound A18, (3^5-chloro-1^6-methoxy-1^4-(4-methylpiperazin-1-yl)-6-oxa-2,4-diaza-3(2,4)-pyrimidina-1(1,3),5(1,4)-dibenzenacycloundecaphane-5^2-yl)dimethylphosphine oxide]
89 | 1450 | 2.6 |  | COc1cc(N2CCN(C3CCN(C)CC3)CC2)c2cc1Nc1ncc(Cl)c(n1)Nc1ccc(cc1N(C)S(C)(=O)=O)OCCCCC2 [Compound A20, N-(3^5-chloro-1^6-methoxy-1^4-(4-(1-methylpiperidin-4-yl)piperazin-1-yl)-6-oxa-2,4-diaza-3(2,4)-pyrimidina-1(1,3),5(1,4)-dibenzenacycloundecaphane-5^2-yl)-N-methylmethanesulfonamide]
157 | 2660 | 2.6 |  | CCN(c1cc2ccc1Nc1nc(ncc1Cl)Nc1cc(c(N3CCN(C)CC3)cc1OC)CCCCCCO2)S(C)(=O)=O [Compound A23, N-(3^5-chloro-1^6-methoxy-1^4-(4-methylpiperazin-1-yl)-6-oxa-2,4-diaza-3(2,4)-pyrimidina-1(1,3),5(1,4)-dibenzenacyclododecaphane-5^2-yl)-N-ethylmethanesulfonamide]
63 | 3330 | 2.7 | 10.8 | COc1cc(N2CCC(N(C)C)CC2)c2cc1Nc1ncc(Cl)c(n1)Nc1ccc(cc1N(C)S(C)(=O)=O)OCCCCC2 [Compound A24, N-(3^5-chloro-1^4-(4-(dimethylamino)piperidin-1-yl)-1^6-methoxy-6-oxa-2,4-diaza-3(2,4)-pyrimidina-1(1,3),5(1,4)-dibenzenacycloundecaphane-5^2-yl)-N-methylmethanesulfonamide]
1110 | 1790 | 250 |  | COc1cc(N2CCC(N3CCN(C)CC3)CC2)c2cc1Nc1ncc(Cl)c(n1)Nc1ccc(cc1S(=O)(=O)C(C)C)OCCCCC2 [Compound A26, 3^5-chloro-5^2-(isopropylsulfonyl)-16-methoxy-1^4-(4-(4-methylpiperazin-1-yl)piperidin-1-yl)-6-oxa-2,4-diaza-3(2,4)-pyrimidina-1(1,3),5(1,4)-dibenzenacycloundecaphane]
330 | 3400 | 2.3 |  | COc1cc(N2CCC(N(C)C)C2)c2cc1Nc1ncc(Cl)c(n1)Nc1ccc(cc1N(C)S(C)(=O)=O)OCCCCC2 (centres unmarked) [Compound A27, N-(3^5-chloro-1^4-(3-(dimethylamino)pyrrolidin-1-yl)-1^6-methoxy-6-oxa-2,4-diaza-3(2,4)-pyrimidina-1(1,3),5(1,4)-dibenzenacycloundecaphane-5^2-yl)-N-methylmethanesulfonamide]
194 | 2970 | 1.4 |  | COc1cc(N2C[C@H]3CN(C)C[C@H]3C2)c2cc1Nc1ncc(Cl)c(n1)Nc1ccc(cc1N(C)S(C)(=O)=O)OCCCCC2 [Compound A28, N-(3^5-chloro-1^6-methoxy-1^4-((cis-3,6)-5-methylhexahydropyrrolo[3,4-c]pyrrol-2(1H)-yl)-6-oxa-2,4-diaza-3(2,4)-pyrimidina-1(1,3),5(1,4)-dibenzenacycloundecaphane-5^2-yl)-N-methylmethanesulfonamide]
154 | > 10000 | 12.7 |  | COc1cc(N2CCN(C(C)=O)CC2)c2cc1Nc1ncc(Cl)c(n1)Nc1ccc(cc1N(C)S(C)(=O)=O)OCCCCC2 [Compound A31, N-(1^4-(4-acetylpiperazin-1-yl)-3^5-chloro-1^6-methoxy-6-oxa-2,4-diaza-3(2,4)-pyrimidina-1(1,3),5(1,4)-dibenzenacycloundecaphane-5^2-yl)-N-methylmethanesulfonamide]
106 | 4840 | 0.6 |  | COc1cc(N2CCC(N3CCOCC3)CC2)c2cc1Nc1ncc(Cl)c(n1)Nc1ccc(cc1N(C)S(C)(=O)=O)OCCCCC2 [Compound A32, N-(3^5-chloro-1^6-methoxy-1^4-(4-morpholinopiperidin-1-yl)-6-oxa-2,4-diaza-3(2,4)-pyrimidina-1(1,3),5(1,4)-dibenzenacycloundecaphane-5^2-yl)-N-methylmethanesulfonamide]
142 | 3820 | 2 |  | COc1cc(N2CCC(N3CCN(C)CC3)CC2)c2cc1Nc1ncc(Br)c(n1)Nc1ccc(cc1P(C)(C)=O)OCCCCCC2 [Compound A34, (3^5-bromo-1^6-methoxy-1^4-(4-(4-methylpiperazin-1-yl)piperidin-1-yl)-6-oxa-2,4-diaza-3(2,4)-pyrimidina-1(1,3),5(1,4)-dibenzenacyclododecaphane-5^2-yl)dimethylphosphine oxide]
1050 | 2240 | 289 |  | COc1cc(N2CCN(C)CC2)c2cc1Nc1ncc(Br)c(n1)Nc1ccc(cc1P(C)(C)=O)OCCCC2 [Compound A35, (3^5-bromo-1^6-methoxy-1^4-(4-methylpiperazin-1-yl)-6-oxa-2,4-diaza-3(2,4)-pyrimidina-1(1,3),5(1,4)-dibenzenacyclodecaphane-5^2-yl)dimethylphosphine oxide]

From patent US20230159556A1, “NOVEL PROTEIN KINASE INHIBITORS” (TENOVA PHARMACEUTICALS INC., priority 2020, published 2023)
